Assay [1] relates to OVCAR3. As to the kind of experiment: Cell proliferation (CyQUANT) OVCAR3. It is filed as cell-based. The settings on record: OVCAR3, 7 days, read-out: Anti-proliferation assay: IC50 (nM) [Cell Line: OVCAR3]. As for the experimental part: (§1) Cancer cell lines, namely, OVCAR3, TOV21G were seeded onto 96 well cell culture plates at a density of 2500, 1000 or 3000 cells/well, respectively and cultured overnight. Cells treated with test compounds at 3-fold dose titration for 7 days at maximum final DMSO concentration of 0.01%. The CyQUANT® Cell Proliferation Assay, a highly sensitive fluorescence-based method for quantifying cells and assessing cell proliferation and cytotoxicity was employed, following manufacturer's procedure (ThermnoFisher, Cataloge #C35012). Plates were scanned with a laser-based Acumen Cellistra instrument by TTP LabTech at Ex/Em 480/520 nm. % Inhibition is calculated based on DMSO control wells on the same plate (ie, DMSO wells have 100% growth and 0% growth inhibition).

In assay [2] the target is CDK2/CycE1 (Homo sapiens, UniProt P24941). As to the kind of experiment: In vitro kinase TR-FRET assay CDK2/CycE1. The assay is classed as biochemical. To be noted: enzyme 0.6 nM, ATP 82 μM, read-out: CDK2 cyclinE1 activity assay: IC50. As to the method: (§2) In vitro kinase TR-FRET assays: CDK2/CycA2, CDK2/CycE1, CDK1/cyclinB and GSK3β
(§3) The test compounds were prepared as 10 mM stock solution in 100% DMSO. The stock solution was then serially diluted 3-fold in 100% DMSO to 10 concentrations. 200 nL of each diluted compound solution was transferred to 384-well plate in duplicate. To each well, 5 uL of enzyme and ATP mixture solution containing enzyme CDK2/CycA2, CDK2/CycE1, CDK1/cyclinB, or GSK30 (final concentrations 3 nM, 0.6 nM, 0.3 nM, 0.6 nM, respectively) and ATP (final concentrations 27 μM, 82 μM, 56 μM, 7.6 μM, respectively) in the assay buffer (50 mM HEPES, pH7.5, 10 mM MgCl2, 1 mM DTT, 0.01% BSA, 0.01% Triton X-100). For negative control, 5 uL of assay buffer was added instead. The plate was incubated at room temperature for 10 min. 5 uL of peptide solution containing ULight-4E-BP1 peptide (final concentrations 50 nM) in the assay buffer was subsequently added into each well to initiate the reaction. By incubation at room temperature for 1 hour, 10 uL of 2 nM Eu-anti-phospho-4E BP1 antibody was then added for detection. After one hour incubation at room temperature, all samples were subjected to read the TR-FRET signal on Envision with excitation at 340 nm and emission fluorescence at 615 nm and 665 nm. IC50 values were then calculated by plotting dose-response curves and then using the XLfit application in Excel software.
For orientation: Time-resolved FRET reads energy transfer from a long-lived donor to a nearby acceptor.

Assay [3] deals with CDK2/CycA2 (Homo sapiens, UniProt P24941). The experiment in a line: In vitro kinase TR-FRET assay CDK2/CycA2. It is filed as biochemical. The settings on record: enzyme 3 nM, ATP 27 μM, read-out: CDK2 cyclinA2 activity assay: IC50. As to the method: as §2, §3
Assay [4] deals with GSK3β (Homo sapiens, UniProt P49841). The experiment in a line: In vitro kinase TR-FRET assay GSK3β. The assay is classed as biochemical. The settings on record: enzyme 0.6 nM, ATP 7.6 μM. As for the experimental part: as §2, §3
The target of assay [5] is CDK1/cyclinB (Homo sapiens, UniProt P06493). As to the kind of experiment: In vitro kinase TR-FRET assay CDK1/cyclinB. The settings on record: enzyme 0.3 nM, ATP 56 μM. It is filed as biochemical. As to the method: as §2, §3
Assay [6] concerns TOV21G. As to the kind of experiment: Cell proliferation (CyQUANT) TOV21G. To be noted: 7 days, read-out: Anti-proliferation assay: IC50 (nM) [Cell Line: TOV21G]. It is filed as cell-based. As to the method: as §1

Read-outs that look alike come from different tables or passages of the source.

Sequence of CDK1/cyclinB (P06493 whole entry): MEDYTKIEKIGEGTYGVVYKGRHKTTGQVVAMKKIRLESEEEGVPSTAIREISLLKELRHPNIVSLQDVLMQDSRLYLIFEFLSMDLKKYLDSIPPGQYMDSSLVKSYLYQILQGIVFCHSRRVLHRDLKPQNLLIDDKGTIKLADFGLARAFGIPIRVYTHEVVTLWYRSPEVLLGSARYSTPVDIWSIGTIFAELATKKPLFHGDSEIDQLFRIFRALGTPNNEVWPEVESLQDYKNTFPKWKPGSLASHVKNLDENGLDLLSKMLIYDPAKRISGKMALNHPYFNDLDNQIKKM
Sequence of CDK1/cyclinB (P14635 whole entry partner): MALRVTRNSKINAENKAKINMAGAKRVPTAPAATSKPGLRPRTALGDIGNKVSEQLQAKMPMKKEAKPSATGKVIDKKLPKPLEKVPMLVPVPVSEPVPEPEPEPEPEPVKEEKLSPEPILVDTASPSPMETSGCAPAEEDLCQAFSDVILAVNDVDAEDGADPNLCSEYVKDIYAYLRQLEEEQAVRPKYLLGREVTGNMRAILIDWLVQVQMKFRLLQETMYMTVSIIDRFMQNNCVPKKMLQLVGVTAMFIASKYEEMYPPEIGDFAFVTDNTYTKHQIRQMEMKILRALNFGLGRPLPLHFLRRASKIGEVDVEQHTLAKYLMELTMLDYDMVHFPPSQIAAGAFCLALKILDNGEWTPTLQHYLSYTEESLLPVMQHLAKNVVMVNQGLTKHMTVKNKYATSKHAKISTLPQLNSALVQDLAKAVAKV
Sequence of GSK3β (P49841 whole entry, species assumed): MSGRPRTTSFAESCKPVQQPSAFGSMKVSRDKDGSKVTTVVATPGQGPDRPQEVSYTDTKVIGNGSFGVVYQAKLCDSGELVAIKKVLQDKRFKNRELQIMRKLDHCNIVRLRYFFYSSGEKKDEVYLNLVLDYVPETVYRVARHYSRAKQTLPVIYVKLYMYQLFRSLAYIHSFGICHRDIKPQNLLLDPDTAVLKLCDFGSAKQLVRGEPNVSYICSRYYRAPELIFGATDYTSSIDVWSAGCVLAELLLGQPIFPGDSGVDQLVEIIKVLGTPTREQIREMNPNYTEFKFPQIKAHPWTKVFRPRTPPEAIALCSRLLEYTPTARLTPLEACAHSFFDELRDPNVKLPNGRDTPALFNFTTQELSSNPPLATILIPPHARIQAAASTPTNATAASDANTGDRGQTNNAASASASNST

Regarding `CC(C)NC(=O)OC1CCC(c2cc(Nc3ccc4c(c3)CN(C)S4(=O)=O)[nH]n2)C1` (racemic) [Example 23, 3-(5-((2-methyl-1,1-dioxido-2,3-dihydrobenzo[d]isothiazol-5-yl)amino)-1H-pyrazol-3-yl)cyclopentyl isopropylcarbamate], the IC50 in assay [1] (Homo sapiens, OVCAR-3, 168 h) is at most 500 nM; in assay [2], under 50 nM; in assay [3], under 50 nM; in assay [4] it was 50 to 500 nM; in assay [5], 50 to 500 nM; in assay [6] (Homo sapiens, 168 h), at least 1000 nM.

For `CC(C)NC(=O)O[C@@H]1CC[C@H](c2cc(Nc3ccc4c(c3)C(=O)NC4=O)n[nH]2)C1` [Example 4, (1R,3S)-3-(3-((1,3-dioxoisoindolin-5-yl)amino)-1H-pyrazol-5-yl)cyclopentyl isopropylcarbamate], the IC50 is 500 to 1000 nM in assay [1] (Homo sapiens, OVCAR-3, 168 h); under 50 nM in assay [2]; under 50 nM in assay [3]; 50 to 500 nM in assay [4]; 50 to 500 nM in assay [5]; at least 1000 nM in assay [6] (Homo sapiens, 168 h).

In the case of `CC(C)NC(=O)O[C@@H]1CC[C@H](c2cc(Nc3ccc4c(c3)C(=O)NS4(=O)=O)[nH]n2)C1` [Example 5, (1R,3S)-3-(5-((1,1-dioxido-3-oxo-2,3-dihydrobenzo[d]isothiazol-5-yl)amino)-1H-pyrazol-3-yl)cyclopentyl isopropylcarbamate], the IC50 in assay [1] (Homo sapiens, OVCAR-3, 168 h) is at least 1000 nM; in assay [2], under 50 nM; in assay [3], under 50 nM; in assay [4], 500 to 1000 nM; in assay [5], over 1000 nM; in assay [6] (Homo sapiens, 168 h), at least 1000 nM.

As for `CC(C)NC(=O)O[C@@H]1CC[C@H](c2cc(Nc3ccc4c(c3)OCCNS4(=O)=O)n[nH]2)C1` [Example 6, (1R,3S)-3-(3-((1,1-dioxido-3,4-dihydro-2H-benzo[b][1,4,5]oxathiazepin-7-yl)amino)-1H-pyrazol-5-yl)cyclopentyl isopropylcarbamate], the IC50 in assay [1] (Homo sapiens, OVCAR-3, 168 h) is at most 500 nM; in assay [2], under 50 nM; in assay [3] it was under 50 nM; in assay [4] it was 50 to 500 nM; in assay [5] it was 50 to 500 nM; in assay [6] (Homo sapiens, 168 h) it was at least 1000 nM.

For the compound `CC(C)NC(=O)O[C@H]1CC[C@@H](c2cc(Nc3ccc4c(c3)CNS4(=O)=O)n[nH]2)CC1` [Example 7, (1s,4s)-4-{3-[(1,1-dioxo-2,3-dihydro-1λ^6,2-benzothiazol-5-yl)amino]-1H-pyrazol-5-yl}cyclohexyl N-(propan-2-yl)carbamate], the IC50 in assay [1] is at most 500 nM; in assay [2], under 50 nM; in assay [3], under 50 nM; in assay [4] it was over 1000 nM; in assay [5] it was 50 to 500 nM; in assay [6], at least 1000 nM.

For `CC(C)NC(=O)O[C@@H]1CC[C@H](c2cc(Nc3ccc4c(c3)CNC4=O)n[nH]2)C1` [Example 8, (1R,3S)-3-(3-((1-oxoisoindolin-5-yl)amino)-1H-pyrazol-5-yl)cyclopentyl isopropylcarbamate], the IC50 in assay [1] (Homo sapiens, OVCAR-3, 168 h) was at least 1000 nM; in assay [2] it was under 50 nM; in assay [3], under 50 nM; in assay [4], 500 to 1000 nM; in assay [5], 500 to 1000 nM; in assay [6] (Homo sapiens, 168 h) it was at least 1000 nM.

As to `CC(C)NC(=O)O[C@@H]1CC[C@H](c2cc(Nc3ccc4c(c3)CCS4(=O)=O)n[nH]2)C1` [Example 9, (1R,3S)-3-(3-((1,1-dioxido-2,3-dihydrobenzo[b]thiophen-5-yl)amino)-1H-pyrazol-5-yl)cyclopentyl isopropylcarbamate], the IC50 in assay [1] (Homo sapiens, OVCAR-3, 168 h) was at most 500 nM; in assay [2] it was under 50 nM; in assay [3], under 50 nM; in assay [4] it was 50 to 500 nM; in assay [5], 50 to 500 nM; in assay [6] (Homo sapiens, 168 h), at least 1000 nM.

On to `CC(C)NC(=O)O[C@@H]1CC[C@H](c2cc(Nc3ccc4c(c3)C(C)NS4(=O)=O)[nH]n2)C1` (stereo partly drawn) [Example 10, (1R,3S)-3-(5-((3-methyl-1,1-dioxido-2,3-dihydrobenzo[d]isothiazol-5-yl)amino)-1H-pyrazol-3-yl)cyclopentyl isopropylcarbamate], for which the IC50 is at most 500 nM in assay [1] (Homo sapiens, OVCAR-3, 168 h); under 50 nM in assay [2]; under 50 nM in assay [3]; 50 to 500 nM in assay [4]; under 50 nM in assay [5]; at least 1000 nM in assay [6] (Homo sapiens, 168 h).

Take `CC(C)NC(=O)O[C@H]1CC[C@@H](c2cc(Nc3ccc4c(c3)CCNS4(=O)=O)n[nH]2)CC1` [Example 11, (1s,4s)-4-{3-[(1,1-dioxo-3,4-dihydro-2H-1λ^6,2-benzothiazin-6-yl)amino]-1H-pyrazol-5-yl}cyclohexyl N-(propan-2-yl)carbamate]: the IC50 in assay [1] (Homo sapiens, OVCAR-3, 168 h) was at most 500 nM; in assay [2], under 50 nM; in assay [3], under 50 nM; in assay [4], over 1000 nM; in assay [5], under 50 nM; in assay [6] (Homo sapiens, 168 h), at least 1000 nM.

As for `CC(C)NC(=O)O[C@@H]1CC[C@H](c2cc(Nc3ccc4c(c3)N(C)CNS4(=O)=O)n[nH]2)C1` [Example 12, (1R,3S)-3-{3-[(4-methyl-1,1-dioxo-3,4-dihydro-2H-1λ^6,2,4-benzothiadiazin-6-yl)amino]-1H-pyrazol-5-yl}cyclopentyl N-(propan-2-yl)carbamate], the IC50 is at most 500 nM in assay [1]; under 50 nM in assay [2]; under 50 nM in assay [3]; 50 to 500 nM in assay [4]; under 50 nM in assay [5]; at least 1000 nM in assay [6].

In the case of `COC1CS(=O)(=O)c2ccc(Nc3cc([C@H]4CC[C@@H](OC(=O)NC(C)C)C4)n[nH]3)cc21` (stereo partly drawn) [Example 15, (1R,3S)-3-{5-[(3-methoxy-1,1-dioxo-2,3-dihydro-1λ^6-benzothiophen-5-yl)amino]-2H-pyrazol-3-yl}cyclopentyl (prop-2-ylamino)methanoate], the IC50 was at most 500 nM in assay [1] (Homo sapiens, OVCAR-3, 168 h); under 50 nM in assay [2]; under 50 nM in assay [3]; 50 to 500 nM in assay [4]; 50 to 500 nM in assay [5]; at least 1000 nM in assay [6] (Homo sapiens, 168 h).

On to `CC(C)NC(=O)O[C@@H]1CC[C@H](c2cc(Nc3ccc4c(c3)S(=O)(=O)NC4)n[nH]2)C1` [Example 17, (1R,3S)-3-(3-((1,1-dioxido-2,3-dihydrobenzo[d]isothiazol-6-yl)amino)-1H-pyrazol-5-yl)cyclopentyl isopropylcarbamate], for which the IC50 in assay [1] (Homo sapiens, OVCAR-3, 168 h) was at most 500 nM; in assay [2] it was under 50 nM; in assay [3] it was under 50 nM; in assay [4] it was 50 to 500 nM; in assay [5], under 50 nM; in assay [6] (Homo sapiens, 168 h), at most 500 nM.

`CC(C)NC(=O)O[C@@H]1CC[C@H](c2cc(Nc3ccc4c(c3)S(=O)(=O)CC4)n[nH]2)C1` [Example 19, (1R,3S)-3-(3-((1,1-dioxido-2,3-dihydrobenzo[b]thiophen-6-yl)amino)-1H-pyrazol-5-yl)cyclopentyl isopropylcarbamate]: the IC50 in assay [1] (Homo sapiens, OVCAR-3, 168 h) was at most 500 nM; in assay [2], under 50 nM; in assay [3] it was under 50 nM; in assay [4], 50 to 500 nM; in assay [5], 50 to 500 nM; in assay [6] (Homo sapiens, 168 h) it was at most 500 nM.

In the case of `CC(C)NC(=O)O[C@@H]1CC[C@H](c2cc(Nc3ccc4c(c3)C(C)(C)CS4(=O)=O)n[nH]2)C1` [Example 21, (1R,3S)-3-{5-[(3,3-dimethyl-1,1-dioxo-2,3-dihydro-1λ^6-benzothiophen-5-yl)amino]-2H-pyrazol-3-yl}cyclopentyl (prop-2-ylamino)methanoate], the IC50 was 500 to 1000 nM in assay [1] (Homo sapiens, OVCAR-3, 168 h); under 50 nM in assay [2]; under 50 nM in assay [3]; 50 to 500 nM in assay [4]; 50 to 500 nM in assay [5]; at least 1000 nM in assay [6] (Homo sapiens, 168 h).

(Values after patent US20240246950A1, “Anilino-Pyrazole Derivatives, Compositions and Methods Thereof” (Ensem Therapeutics, priority 2022, published 2024).)
